Columns and labels:
Assay type in all cases: biochemical
PDE1A = PDE1A (Homo sapiens, UniProt P54750); experiment: PDE1 inhibition assay (PDE1A); conditions: 15 nM tritium labelled cAMP, SPA
Description: (§1) PDE1A, PDE1B and PDE1C assays were performed as follows: the assays were performed in 60 μL samples containing a fixed amount of the PDE1 enzyme (sufficient to convert 20-25% of the cyclic nucleotide substrate), a buffer (50 mM HEPES (4-(2-hydroxyethyl)-1-piperazineethanesulfonic acid) pH 7.6; 10 mM MgCl2; 0.02% Tween20), 0.1 mg/ml BSA (bovine serum albumin), 15 nM tritium labelled cAMP and varying amounts of inhibitors. Reactions were initiated by addition of the cyclic nucleotide substrate, and reactions were allowed to proceed for 1 hr at room temperature before being terminated through mixing with 20 μL (0.2 mg) yttrium silicate SPA beads (PerkinElmer). The beads were allowed to settle for 1 hour in the dark before the plates were counted in a Wallac 1450 Microbeta counter. The measured signals were converted to activity relative to an uninhibited control (100%) and IC50 values were calculated using XlFit (model 205, IDBS).

PDE1B = PDE1B (Homo sapiens, UniProt Q01064); experiment: PDE1 inhibition assay (PDE1B); conditions: 15 nM tritium labelled cAMP, SPA
Description: as §1

PDE1C = PDE1C (Homo sapiens, UniProt Q14123); experiment: PDE1 inhibition assay (PDE1C); conditions: 15 nM tritium labelled cAMP, SPA
Description: as §1

PDE9 = PDE9 (Homo sapiens, UniProt O76083); experiment: PDE9 inhibition assay; conditions: for inhibition at 10 µM / PDE9 Inhibition at 10 μM (%): 10 μM of inhibitor
Description: A PDE9 assay may for example, be performed as follows: The assay is performed in 60 μL samples containing a fixed amount of the relevant PDE enzyme (sufficient to convert 20-25% of the cyclic nucleotide substrate), a buffer (50 mM HEPES pH 7.6; 10 mM MgCl2; 0.02% Tween20), 0.1 mg/ml BSA, 225 pCi of ^3H-labelled cyclic nucleotide substrate, tritium labeled cAMP to a final concentration of 5 nM and varying amounts of inhibitors. Reactions are initiated by addition of the cyclic nucleotide substrate, and reactions are allowed to proceed for one hr at room temperature before being terminated through mixing with 15 μL 8 mg/mL yttrium silicate SPA beads (Amersham). The beads are allowed to settle for one hr in the dark before the plates are counted in a Wallac 1450 Microbeta counter. The measured signal can be converted to activity relative to an uninhibited control (100%) and IC50 values can be calculated using the Xlfit extension to EXCEL.
In the context of the present invention the assay was performed in 60 μL assay buffer (50 mM HEPES pH 7.6; 10 mM MgCl2; 0.02% Tween20) containing enough PDE9 to convert 20-25% of 10 nM ^3H-cAMP, and […] 10 μM of inhibitor. Following 1 hr incubation the reactions were terminated by addition of 15 μL 8 mg/mL yttrium silicate SPA beads (Amersham). The beads were allowed to settle for one hr in the dark before the plates were counted in a Wallac 1450 Microbeta counter.

PDE9, sequence (O76083 whole entry): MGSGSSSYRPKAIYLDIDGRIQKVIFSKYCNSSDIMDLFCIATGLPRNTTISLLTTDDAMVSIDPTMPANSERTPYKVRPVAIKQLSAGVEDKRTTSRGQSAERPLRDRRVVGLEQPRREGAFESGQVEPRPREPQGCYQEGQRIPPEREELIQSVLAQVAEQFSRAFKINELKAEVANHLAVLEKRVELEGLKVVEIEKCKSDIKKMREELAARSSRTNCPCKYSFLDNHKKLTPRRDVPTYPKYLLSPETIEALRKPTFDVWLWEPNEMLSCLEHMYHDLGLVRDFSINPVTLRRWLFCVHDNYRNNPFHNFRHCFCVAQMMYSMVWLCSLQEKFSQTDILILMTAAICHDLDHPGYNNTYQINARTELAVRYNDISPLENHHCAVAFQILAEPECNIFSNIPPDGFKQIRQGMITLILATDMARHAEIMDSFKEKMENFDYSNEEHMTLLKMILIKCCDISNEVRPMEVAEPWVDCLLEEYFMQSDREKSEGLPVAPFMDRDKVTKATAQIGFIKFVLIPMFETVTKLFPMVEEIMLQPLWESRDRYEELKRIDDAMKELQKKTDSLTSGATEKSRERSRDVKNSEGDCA
PDE1C, sequence (Q14123 whole entry): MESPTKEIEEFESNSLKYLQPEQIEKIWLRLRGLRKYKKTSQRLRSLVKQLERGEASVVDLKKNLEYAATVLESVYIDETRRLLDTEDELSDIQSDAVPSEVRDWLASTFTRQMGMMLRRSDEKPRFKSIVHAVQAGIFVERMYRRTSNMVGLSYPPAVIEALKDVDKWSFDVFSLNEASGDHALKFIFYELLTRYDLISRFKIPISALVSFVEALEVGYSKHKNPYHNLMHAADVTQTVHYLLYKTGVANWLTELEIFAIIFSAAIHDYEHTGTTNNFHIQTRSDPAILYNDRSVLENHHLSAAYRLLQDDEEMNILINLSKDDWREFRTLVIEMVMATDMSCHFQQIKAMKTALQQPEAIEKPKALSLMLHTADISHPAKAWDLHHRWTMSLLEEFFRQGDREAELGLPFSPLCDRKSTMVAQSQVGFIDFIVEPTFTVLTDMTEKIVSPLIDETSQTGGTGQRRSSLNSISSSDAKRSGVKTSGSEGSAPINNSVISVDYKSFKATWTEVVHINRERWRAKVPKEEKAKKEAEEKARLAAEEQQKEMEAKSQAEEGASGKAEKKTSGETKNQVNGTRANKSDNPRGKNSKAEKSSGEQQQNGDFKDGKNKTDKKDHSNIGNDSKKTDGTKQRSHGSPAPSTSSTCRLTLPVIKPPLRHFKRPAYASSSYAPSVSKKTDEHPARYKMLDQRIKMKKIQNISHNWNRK
PDE1A, sequence (P54750 whole entry): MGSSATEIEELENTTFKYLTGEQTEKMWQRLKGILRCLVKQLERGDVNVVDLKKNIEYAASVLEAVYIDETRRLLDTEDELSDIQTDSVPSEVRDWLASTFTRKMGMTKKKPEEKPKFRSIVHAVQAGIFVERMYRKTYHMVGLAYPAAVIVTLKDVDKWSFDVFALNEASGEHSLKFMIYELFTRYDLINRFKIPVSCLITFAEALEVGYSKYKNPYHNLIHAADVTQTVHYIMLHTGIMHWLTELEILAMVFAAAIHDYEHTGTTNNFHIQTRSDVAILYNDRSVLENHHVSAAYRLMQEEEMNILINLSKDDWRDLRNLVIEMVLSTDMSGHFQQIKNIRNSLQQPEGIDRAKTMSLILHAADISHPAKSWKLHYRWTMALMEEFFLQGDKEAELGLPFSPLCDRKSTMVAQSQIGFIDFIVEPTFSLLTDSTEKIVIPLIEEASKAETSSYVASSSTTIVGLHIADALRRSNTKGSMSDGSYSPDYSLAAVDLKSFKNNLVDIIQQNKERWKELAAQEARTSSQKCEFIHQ
PDE1B, sequence (Q01064 whole entry): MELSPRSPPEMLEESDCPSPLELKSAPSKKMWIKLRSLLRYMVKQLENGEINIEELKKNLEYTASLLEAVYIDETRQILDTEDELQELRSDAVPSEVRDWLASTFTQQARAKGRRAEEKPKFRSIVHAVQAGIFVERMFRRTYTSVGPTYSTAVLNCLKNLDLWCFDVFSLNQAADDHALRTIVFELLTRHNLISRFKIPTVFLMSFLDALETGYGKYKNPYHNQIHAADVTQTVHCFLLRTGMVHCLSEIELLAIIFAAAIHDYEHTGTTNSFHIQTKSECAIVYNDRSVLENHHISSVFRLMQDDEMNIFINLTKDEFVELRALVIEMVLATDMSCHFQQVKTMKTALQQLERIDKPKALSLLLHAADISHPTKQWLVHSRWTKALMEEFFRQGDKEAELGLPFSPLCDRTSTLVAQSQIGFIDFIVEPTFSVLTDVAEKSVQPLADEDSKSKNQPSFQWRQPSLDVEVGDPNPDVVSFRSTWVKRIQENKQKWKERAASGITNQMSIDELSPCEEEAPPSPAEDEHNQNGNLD

| IC50 (PDE1A) [nM] | IC50 (PDE1B) [nM] | IC50 (PDE1C) [nM] | inhibition at 10 µM (PDE9) [%] | PDE9 Inhibition at 10 μM (%) (PDE9) | IC50 (PDE9; printed in the PDE9 inhibition column) [nM] | SMILES |
| --- | --- | --- | --- | --- | --- | --- |
| 57 | 16 | 96 | 4 |  |  | Cn1c(Cc2ccc(-c3cccc(F)n3)cc2)cn2c(C3CCOC3)ncc2c1=O (single isomer, unassigned; isomer 1) [Example 27, 6-(4-(6-fluoropyridin-2-yl)benzyl)-7-methyl-3-(tetrahydrofuran-3-yl)imidazo[1,5-a]pyrazin-8(7H)-one, Isomer 1] |
| 61 | 24 | 104 |  | 4 |  | CC1OCCC1c1ncc2c(=O)n(C)c(Cc3ccc(-c4cccc(F)n4)cc3)cn12 (single isomer, unassigned; isomer 1) [Example 29, 6-(4-(6-fluoropyridin-2-yl)benzyl)-7-methyl-3-(2-methyltetrahydrofuran-3-yl)imidazo[1,5-a]pyrazin-8(7H)-one, Isomer 1] |
| 71 | 26 | 111 |  | 6 |  | Cn1c(Cc2ccc(-c3cccc(F)n3)cc2)cn2c(C3CCOC3)ncc2c1=O (single isomer, unassigned; isomer 2) [Example 28, 6-(4-(6-fluoropyridin-2-yl)benzyl)-7-methyl-3-(tetrahydrofuran-3-yl)imidazo[1,5-a]pyrazin-8(7H)-one, Isomer 2] |
| 70 | 71 | 148 |  | −2 |  | CC1OCCC1c1ncc2c(=O)n(C)c(Cc3ccc(-c4cccc(F)n4)cc3)cn12 (single isomer, unassigned; isomer 2) [Example 30, 6-(4-(6-fluoropyridin-2-yl)benzyl)-7-methyl-3-(2-methyltetrahydrofuran-3-yl)imidazo[1,5-a]pyrazin-8(7H)-one, Isomer 2] |
| 18 | 4 | 45 |  | 10 |  | CC1OCCC1c1ncc2c(=O)n(C)c(Cc3ccc(-c4cccc(F)n4)cc3)cn12 (single isomer, unassigned; isomer 3) [Example 31, 6-(4-(6-fluoropyridin-2-yl)benzyl)-7-methyl-3-(2-methyltetrahydrofuran-3-yl)imidazo[1,5-a]pyrazin-8(7H)-one, Isomer 3] |
| 5.8 | 1.3 | 9.2 |  | 5 |  | CC1OCCC1c1ncc2c(=O)n(C)c(Cc3ccc(-c4cccc(F)n4)cc3)cn12 (single isomer, unassigned; isomer 4) [Example 32, 6-(4-(6-fluoropyridin-2-yl)benzyl)-7-methyl-3-(2-methyltetrahydrofuran-3-yl)imidazo[1,5-a]pyrazin-8(7H)-one, Isomer 4] |
| 58 | 14 | 87 | 6 |  |  | Cn1c(Cc2ccc(-c3cccc(C(F)F)n3)cc2)cn2c(C3CCOCC3)ncc2c1=O [Example 15, 6-[[4-[6-(difluoromethyl)-2-pyridyl]phenyl]methyl]-7-methyl-3-tetrahydropyran-4-yl-imidazo[1,5-a]pyrazin-8-one] |

Continued, compound first:

| SMILES | IC50 (PDE1A) [nM] | IC50 (PDE1B) [nM] | IC50 (PDE1C) [nM] | inhibition at 10 µM (PDE9) [%] | PDE9 Inhibition at 10 μM (%) (PDE9) | IC50 (PDE9; printed in the PDE9 inhibition column) [nM] |
| --- | --- | --- | --- | --- | --- | --- |
| Cc1cccc(-c2ccc(Cc3cc4c(cnn4C4CCOCC4)c(=O)n3C)cc2)n1 [Example 1, 5-methyl-6-[[4-(6-methyl-2-pyridyl)phenyl]methyl]-1-tetrahydropyran-4-yl-pyrazolo[4,3-c]pyridin-4-one] | 150 | 32 | 220 | 10 |  |  |
| Cn1c(Cc2ccc(-c3ccccn3)cc2)nc2c(cnn2C2CCOCC2)c1=O [Example 2, 5-methyl-6-[[4-(2-pyridyl)phenyl]methyl]-1-tetrahydropyran-4-yl-pyrazolo[3,4-d]pyrimidin-4-one] | 390 | 92 | 530 | 5 |  |  |
| Cc1cccc(-c2ccc(Cc3nc4c(cnn4C4CCOCC4)c(=O)n3C)cc2)n1 [Example 3, 5-methyl-6-[[4-(6-methyl-2-pyridyl)phenyl]methyl]-1-tetrahydropyran-4-yl-pyrazolo[3,4-d]pyrimidin-4-one] | 350 | 93 | 660 | 25 |  |  |
| Cn1c(Cc2ccc(-c3cccc(F)n3)cc2)nc2c(cnn2C2CCOCC2)c1=O [Example 4, 6-[[4-(6-fluoro-2-pyridyl)phenyl]methyl]-5-methyl-1-tetrahydropyran-4-yl-pyrazolo[3,4-d]pyrimidin-4-one] | 180 | 57 | 2100 | 17 |  |  |
| Cn1c(Cc2ccc(-c3cccc(F)n3)cc2)cc2c(cnn2C2CCOCC2)c1=O [Example 5, 6-[[4-(6-fluoro-2-pyridyl)phenyl]methyl]-5-methyl-1-tetrahydropyran-4-yl-pyrazolo[4,3-c]pyridin-4-one] | 120 | 20 | 190 | 3 |  |  |
| Cn1c(Cc2ccc(-c3ccccn3)cc2)cc2c(cnn2C2CCOCC2)c1=O [Example 6, 5-methyl-6-[[4-(2-pyridyl)phenyl]methyl]-1-tetrahydropyran-4-yl-pyrazolo[4,3-c]pyridin-4-one] | 160 | 25 | 240 | 4 |  |  |
| COc1ccc(Cn2c(CN3CCN(c4ccccn4)CC3)cn3c(C4CCOCC4)ncc3c2=O)cc1 [Example 7, 7-[(4-methoxyphenyl)methyl]-6-[[4-(2-pyridyl)piperazin-1-yl]methyl]-3-tetrahydropyran-4-yl-imidazo[1,5-a]pyrazin-8-one] | 88 | 13 | 190 | 19 |  |  |
| COc1ccc(Cn2c(CN3CCN(c4ccccc4)CC3)cn3c(C4CCOCC4)ncc3c2=O)cc1 [Example 8, 7-[(4-methoxyphenyl)methyl]-6-[(4-phenylpiperazin-1-yl)methyl]-3-tetrahydropyran-4-yl-imidazo[1,5-a]pyrazin-8-one] | 59 | 9.8 | 140 | 11 |  |  |
| COc1ccc(Cn2c(Cc3ccc(-c4ccccn4)cc3)cn3c(C4CCOCC4)ncc3c2=O)cc1 [Example 9, 7-[(4-methoxyphenyl)methyl]-6-[[4-(2-pyridyl)phenyl]methyl]-3-tetrahydropyran-4-yl-imidazo[1,5-a]pyrazin-8-one] | 0.29 | 0.19 | 0.38 | 39 |  |  |
| O=c1[nH]c(Cc2ccc(-c3ccccn3)cc2)cn2c(C3CCOCC3)ncc12 [Example 10, 6-[[4-(2-pyridyl)phenyl]methyl]-3-tetrahydropyran-4-yl-7H-imidazo[1,5-a]pyrazin-8-one] | 17 | 6 | 22 |  |  | 180 |
| Cn1c(Cc2ccc(-c3ccccn3)cc2)cn2c(C3CCOCC3)ncc2c1=O [Example 11, 7-methyl-6-[[4-(2-pyridyl)phenyl]methyl]-3-tetrahydropyran-4-yl-imidazo[1,5-a]pyrazin-8-one] | 30 | 3.5 | 120 | -10 |  |  |
| CCn1c(Cc2ccc(-c3ccccn3)cc2)cn2c(C3CCOCC3)ncc2c1=O [Example 12, 7-ethyl-6-[[4-(2-pyridyl)phenyl]methyl]-3-tetrahydropyran-4-yl-imidazo[1,5-a]pyrazin-8-one] | 12 | 3.1 | 26 | 4 |  |  |
| Cc1cccc(-c2ccc(Cc3cn4c(C5CCOCC5)ncc4c(=O)n3C)cc2)n1 [Example 13, 7-methyl-6-[[4-(6-methyl-2-pyridyl)phenyl]methyl]-3-tetrahydropyran-4-yl-imidazo[1,5-a]pyrazin-8-one] | 81 | 14 | 80 | 18 |  |  |
| Cn1c(Cc2ccc(-c3cccc(F)n3)cc2)cn2c(C3CCOCC3)ncc2c1=O [Example 14, 6-[[4-(6-fluoro-2-pyridyl)phenyl]methyl]-7-methyl-3-tetrahydropyran-4-yl-imidazo[1,5-a]pyrazin-8-one] | 62 | 5.2 | 67 | 14 |  |  |
